Like-named read-outs stand apart in the source and are kept apart here.
How the values were obtained:
Test in all cases: Glasshouse assay for herbicidal activity (pre- and post-emergence), percentage phytotoxicity
Type in all cases: in vivo
[1] = system: Alopecurus myosuroides (ALOMY); conditions: Alopecurus myosuroides
Procedure, shortened: (§1)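 Damage was rated visually as percent phytotoxicity, 100% meaning total kill, 20 days after pre-emergence application (made one day post-sowing) or 15 days after post-emergence application (made about 12 days post-sowing). Plants were grown under 16 h light, 65% humidity, warm species 24/18° C, cool 20/16° C.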

[2] = system: Avena fatua (AVEFA); conditions: Avena fatua
Procedure, shortened: as §1

[3] = system: Echinochloa crus-galli (ECHCG); conditions: Echinochloa crus-galli
Procedure, shortened: as §1

[4] = system: Lolium perenne (LOLPE); conditions: Lolium perenne
Procedure, shortened: as §1

[5] = post-emergence, 360 h, 250 g/ha, post-emergence, 15 DAA, visual assessment (100%=total damage, 0%=no damage), read-out: Post-emergence herbicidal activity (percentage phytotoxicity) ALOMY POST
[6] = pre-emergence, 480 h, 250 g/ha, pre-emergence, 20 DAA, visual assessment (100%=total damage, 0%=no damage), read-out: Pre-emergence herbicidal activity (percentage phytotoxicity) ALOMY PRE
[7] = post-emergence, 360 h, 250 g/ha, post-emergence, 15 DAA, visual assessment (100%=total damage, 0%=no damage), read-out: Post-emergence herbicidal activity (percentage phytotoxicity) AVEFA POST
[8] = pre-emergence, 480 h, 250 g/ha, pre-emergence, 20 DAA, visual assessment (100%=total damage, 0%=no damage), read-out: Pre-emergence herbicidal activity (percentage phytotoxicity) AVEFA PRE
[9] = post-emergence, 360 h, 250 g/ha, post-emergence, 15 DAA, visual assessment (100%=total damage, 0%=no damage), read-out: Post-emergence herbicidal activity (percentage phytotoxicity) ECHCG POST
[10] = pre-emergence, 480 h, 250 g/ha, pre-emergence, 20 DAA, visual assessment (100%=total damage, 0%=no damage), read-out: Pre-emergence herbicidal activity (percentage phytotoxicity) ECHCG PRE
[11] = post-emergence, 360 h, 250 g/ha, post-emergence, 15 DAA, visual assessment (100%=total damage, 0%=no damage), read-out: Post-emergence herbicidal activity (percentage phytotoxicity) LOLPE POST
[12] = pre-emergence, 480 h, 250 g/ha, pre-emergence, 20 DAA, visual assessment (100%=total damage, 0%=no damage), read-out: Pre-emergence herbicidal activity (percentage phytotoxicity) LOLPE PRE
[13] = post-emergence, 360 h, Rate 250 g/ha, post-emergence, visual assessment 15 DAA, 100%=total damage, 0%=no damage, read-out: Post-emergence herbicidal activity (percentage phytotoxicity) ALOMY POST
[14] = pre-emergence, 480 h, Rate 250 g/ha, pre-emergence, visual assessment 20 DAA, 100%=total damage, 0%=no damage, read-out: Pre-emergence herbicidal activity (percentage phytotoxicity) ALOMY PRE
[15] = post-emergence, 360 h, Rate 250 g/ha, post-emergence, visual assessment 15 DAA, 100%=total damage, 0%=no damage, read-out: Post-emergence herbicidal activity (percentage phytotoxicity) AVEFA POST
[16] = pre-emergence, 480 h, Rate 250 g/ha, pre-emergence, visual assessment 20 DAA, 100%=total damage, 0%=no damage, read-out: Pre-emergence herbicidal activity (percentage phytotoxicity) AVEFA PRE
[17] = post-emergence, 360 h, Rate 250 g/ha, post-emergence, visual assessment 15 DAA, 100%=total damage, 0%=no damage, read-out: Post-emergence herbicidal activity (percentage phytotoxicity) ECHCG POST
[18] = pre-emergence, 480 h, Rate 250 g/ha, pre-emergence, visual assessment 20 DAA, 100%=total damage, 0%=no damage, read-out: Pre-emergence herbicidal activity (percentage phytotoxicity) ECHCG PRE
[19] = post-emergence, 360 h, Rate 250 g/ha, post-emergence, visual assessment 15 DAA, 100%=total damage, 0%=no damage, read-out: Post-emergence herbicidal activity (percentage phytotoxicity) LOLPE POST
[20] = pre-emergence, 480 h, Rate 250 g/ha, pre-emergence, visual assessment 20 DAA, 100%=total damage, 0%=no damage, read-out: Pre-emergence herbicidal activity (percentage phytotoxicity) LOLPE PRE
[21] = post-emergence, 360 h, POST-emergence, rate 250 g/ha, visual score 15 DAA (100%=total damage, 0%=no damage), read-out: Post-emergence herbicidal activity (percentage phytotoxicity) ALOMY POST
[22] = pre-emergence, 480 h, PRE-emergence, rate 250 g/ha, visual score 20 DAA (100%=total damage, 0%=no damage), read-out: Pre-emergence herbicidal activity (percentage phytotoxicity) ALOMY PRE
[23] = post-emergence, 360 h, POST-emergence, rate 250 g/ha, visual score 15 DAA (100%=total damage, 0%=no damage), read-out: Post-emergence herbicidal activity (percentage phytotoxicity) AVEFA POST
[24] = pre-emergence, 480 h, PRE-emergence, rate 250 g/ha, visual score 20 DAA (100%=total damage, 0%=no damage), read-out: Pre-emergence herbicidal activity (percentage phytotoxicity) AVEFA PRE
[25] = post-emergence, 360 h, POST-emergence, rate 250 g/ha, visual score 15 DAA (100%=total damage, 0%=no damage), read-out: Post-emergence herbicidal activity (percentage phytotoxicity) ECHCG POST
[26] = pre-emergence, 480 h, PRE-emergence, rate 250 g/ha, visual score 20 DAA (100%=total damage, 0%=no damage), read-out: Pre-emergence herbicidal activity (percentage phytotoxicity) ECHCG PRE
[27] = post-emergence, 360 h, POST-emergence, rate 250 g/ha, visual score 15 DAA (100%=total damage, 0%=no damage), read-out: Post-emergence herbicidal activity (percentage phytotoxicity) LOLPE POST
[28] = pre-emergence, 480 h, PRE-emergence, rate 250 g/ha, visual score 20 DAA (100%=total damage, 0%=no damage), read-out: Pre-emergence herbicidal activity (percentage phytotoxicity) LOLPE PRE
[29] = post-emergence, 360 h, Rate 250 g/ha, post-emergence, assessed visually 15 DAA, 100%=total damage, 0%=no damage, read-out: Post-emergence herbicidal activity (percentage phytotoxicity) ALOMY POST
[30] = pre-emergence, 480 h, Rate 250 g/ha, pre-emergence, assessed visually 20 DAA, 100%=total damage, 0%=no damage, read-out: Pre-emergence herbicidal activity (percentage phytotoxicity) ALOMY PRE
[31] = post-emergence, 360 h, Rate 250 g/ha, post-emergence, assessed visually 15 DAA, 100%=total damage, 0%=no damage, read-out: Post-emergence herbicidal activity (percentage phytotoxicity) AVEFA POST
[32] = pre-emergence, 480 h, Rate 250 g/ha, pre-emergence, assessed visually 20 DAA, 100%=total damage, 0%=no damage, read-out: Pre-emergence herbicidal activity (percentage phytotoxicity) AVEFA PRE
[33] = post-emergence, 360 h, Rate 250 g/ha, post-emergence, assessed visually 15 DAA, 100%=total damage, 0%=no damage, read-out: Post-emergence herbicidal activity (percentage phytotoxicity) ECHCG POST
[34] = pre-emergence, 480 h, Rate 250 g/ha, pre-emergence, assessed visually 20 DAA, 100%=total damage, 0%=no damage, read-out: Pre-emergence herbicidal activity (percentage phytotoxicity) ECHCG PRE
[35] = post-emergence, 360 h, Rate 250 g/ha, post-emergence, assessed visually 15 DAA, 100%=total damage, 0%=no damage, read-out: Post-emergence herbicidal activity (percentage phytotoxicity) LOLPE POST
[36] = pre-emergence, 480 h, Rate 250 g/ha, pre-emergence, assessed visually 20 DAA, 100%=total damage, 0%=no damage, read-out: Pre-emergence herbicidal activity (percentage phytotoxicity) LOLPE PRE

Row | SMILES | pest or weed control at 250 g/ha [1, 21] [%] | pest or weed control at 250 g/ha [1, 22] [%] | pest or weed control at 250 g/ha [2, 23] [%] | pest or weed control at 250 g/ha [2, 24] [%] | pest or weed control at 250 g/ha [3, 25] [%] | pest or weed control at 250 g/ha [3, 26] [%] | pest or weed control at 250 g/ha [4, 27] [%] | pest or weed control at 250 g/ha [4, 28] [%] | further results
1 | Cc1cc(C)c(C2C(=O)CC(CC(=O)NCC3CC3(Cl)Cl)C2=O)c(C)c1 (stereo not drawn) [Compound B40] |  |  |  |  |  |  |  |  | pest or weed control at 250 g/ha [1, 5]: 80%; pest or weed control at 250 g/ha [1, 6]: 90%; pest or weed control at 250 g/ha [2, 7]: 90%; pest or weed control at 250 g/ha [2, 8]: 70%; pest or weed control at 250 g/ha [3, 9]: 90%; pest or weed control at 250 g/ha [3, 10]: 90%; pest or weed control at 250 g/ha [4, 11]: 80%; pest or weed control at 250 g/ha [4, 12]: 90%
2 | CCN(C)C(=O)CC1CC(=O)C(c2c(C)cc(-c3ncc(Cl)cn3)cc2C)C1=O (stereo not drawn) [Compound B347] |  |  |  |  |  |  |  |  | pest or weed control at 250 g/ha [1, 13]: 100%; pest or weed control at 250 g/ha [1, 14]: 100%; pest or weed control at 250 g/ha [2, 15]: 100%; pest or weed control at 250 g/ha [2, 16]: 100%; pest or weed control at 250 g/ha [3, 17]: 100%; pest or weed control at 250 g/ha [3, 18]: 100%; pest or weed control at 250 g/ha [4, 19]: 100%; pest or weed control at 250 g/ha [4, 20]: 100%
3 | C=CC(C)NC(=O)CC1CC(=O)C(c2c(C)cc(-c3ncc(F)cc3F)cc2C)C1=O (stereo not drawn) [Compound B330] | 100 | 100 | 100 | 100 | 100 | 100 | 100 | 100 | 
4 | Cc1cc(C)c(C2C(=O)CC(CC(=O)NCc3ccc(C#N)cc3)C2=O)c(C)c1 (stereo not drawn) [Compound B69] |  |  |  |  |  |  |  |  | pest or weed control at 250 g/ha [1, 5]: 40%; pest or weed control at 250 g/ha [1, 6]: 50%; pest or weed control at 250 g/ha [2, 7]: 100%; pest or weed control at 250 g/ha [2, 8]: 80%; pest or weed control at 250 g/ha [3, 9]: 80%; pest or weed control at 250 g/ha [3, 10]: 90%; pest or weed control at 250 g/ha [4, 11]: 80%; pest or weed control at 250 g/ha [4, 12]: 90%
5 | Cc1cc(-c2ncc(F)cn2)cc(C)c1C1C(=O)CC(CC(=O)NCc2ccccc2)C1=O (stereo not drawn) [Compound B263] | 100 | 90 | 100 | 80 | 100 | 100 | 100 | 80 | 
6 | Cc1cc(-c2ncc(Cl)cc2F)cc(C)c1C1C(=O)CC(CC(=O)NCC2CC2(F)F)C1=O (stereo not drawn) [Compound B197] | 100 | 100 | 100 | 90 | 100 | 100 | 100 | 90 | 
7 | Cc1cc(-c2ccc(F)cn2)cc(C)c1C1C(=O)CC(CC(=O)NCc2cccc(Cl)c2)C1=O (stereo not drawn) [Compound B401] |  |  |  |  |  |  |  |  | pest or weed control at 250 g/ha [1, 13]: 90%; pest or weed control at 250 g/ha [1, 14]: 80%; pest or weed control at 250 g/ha [2, 15]: 100%; pest or weed control at 250 g/ha [2, 16]: 70%; pest or weed control at 250 g/ha [3, 17]: 100%; pest or weed control at 250 g/ha [3, 18]: 80%; pest or weed control at 250 g/ha [4, 19]: 90%; pest or weed control at 250 g/ha [4, 20]: 90%
8 | Cc1cc(-n2cc(Cl)cn2)cc(C)c1C1C(=O)CC(CC(=O)NCC2CC2)C1=O (stereo not drawn) [Compound B227] | 100 | 80 | 100 | 80 | 100 | 80 | 90 | 80 | 
9 | Cc1cc(-c2ccc(F)cc2)cc(C)c1C1C(=O)CC(CC(=O)NC(C)(C)C)C1=O (stereo not drawn) [Compound A36] |  |  |  |  |  |  |  |  | pest or weed control at 250 g/ha [1, 29]: 90%; pest or weed control at 250 g/ha [1, 30]: 100%; pest or weed control at 250 g/ha [2, 31]: 100%; pest or weed control at 250 g/ha [2, 32]: 100%; pest or weed control at 250 g/ha [3, 33]: 100%; pest or weed control at 250 g/ha [3, 34]: 100%; pest or weed control at 250 g/ha [4, 35]: 90%; pest or weed control at 250 g/ha [4, 36]: 100%
10 | CCc1cc(-n2cc(Cl)cn2)cc(C)c1C1C(=O)CC(CC(=O)NCc2ccc(C#N)cc2)C1=O (stereo not drawn) [Compound B234] | 90 | 60 | 100 | 80 | 90 | 70 | 80 | 70 | 
11 | C#CCNC(=O)CC1CC(=O)C(c2c(C)cc(C#CC)cc2C)C1=O (stereo not drawn) [Compound A28] |  |  |  |  |  |  |  |  | pest or weed control at 250 g/ha [1, 29]: 100%; pest or weed control at 250 g/ha [1, 30]: 100%; pest or weed control at 250 g/ha [2, 31]: 100%; pest or weed control at 250 g/ha [2, 32]: 100%; pest or weed control at 250 g/ha [3, 33]: 100%; pest or weed control at 250 g/ha [3, 34]: 90%; pest or weed control at 250 g/ha [4, 35]: 100%; pest or weed control at 250 g/ha [4, 36]: 90%
12 | COc1ccc(CNC(=O)CC2CC(=O)C(c3c(C)cc(-c4ccc(C#N)cn4)cc3C)C2=O)cc1 (stereo not drawn) [Compound B324] | 70 | 30 | 90 | 0 | 100 | 30 | 80 | 60 | 
